Results on three molecules are retold here after PMC6881293, “Nanomolar-potency ‘co-potentiator’ therapy for cystic fibrosis caused by a defined subset of minimal function CFTR mutants” (Scientific Reports, 2019).

One test has as its target T1, W1282X-CFTR (Homo sapiens, UniProt P13569).
T1 construct: expressed in transfected cells
The test can be described thus: Structure-activity testing of analogs in FRT cells expressing W1282X-CFTR. The test is classed as cell-based. How it is done:
To establish structure-activity relationships, 240 commercially available piperidinepyridoindole analogs and 160 pyrazoloquinoline analogs were tested in FRT cells expressing W1282X-CFTR. In general, the methoxy substituent on the 4-position (R^3) on the pyridoindole ring increased potency (compare A01 vs A534). N-methylation on the pyridoindole ring abolished activity (compare A534 vs A600). For substituent R^1 on the piperidine ring, substituted benzyl gave greatest activity (A061 and A662). Other R^1 substituents, including sulfonamide (A145), alkyl (A764) and carbocyclic (A714), reduced activity. Changing the benzylic carbon from methylene (CH2) to ketone (C=O) abolished activity (A815, A350 and A956).
For R^3, pyridine (D003), benzyl (D035) and substituted methyl-pyrazole (D086) abolished activity. […] The D123 pyrazoloquinoline with R^3 substituted with thiophene-quinoline heterocycle gave the best potency.

Another test deals with T2, M1101K-CFTR (Homo sapiens, UniProt P13569, M1101K).
T2 construct: expressed in transfected cells; host or cells: Fischer rat thyroid (FRT) cells; gift from Drs; Andras Rab and Jeong Hong (Emory University)
The test can be described thus: Short-circuit current in FRT cells expressing M1101K-CFTR. The test is classed as cell-based. The following applies: 20 μM forskolin, 5 µM VX-770, 20 µM ASP-11. How it is done:
(§1) As shown in Fig. 1C and summarized in Fig. 2, ASP-11 acted in synergy with VX-770 to increase chloride current in FRT cells expressing the NBD2 mutations I1234del- and Q1313X-CFTR by ~3–9-fold compared to VX-770. I1234del- and Q1313X-CFTR-expressing cells were also treated with VX-809 for 24 hours (to consider the effect of available CFTR therapeutics) with 2–3-fold greater currents observed.
(§2) Figure 2 Summary of short-circuit current responses to modulators for CFTR mutants in transfected FRT cells. Responses to indicated CFTR mutants with 20 μM forskolin, 5 µM VX-770, 20 µM ASP-11 (with or without 3 µM VX-809 overnight). For reference, data shown for cells expressing wild type CFTR. Mean ± S.E.M., n = 3.
(§3) Short-circuit current was measured on cells cultured on Snapwell clear permeable supports (Corning) as described[10],[11]. Hemichambers were connected to a DVC-1000 voltage clamp (World Precision Instruments Inc., Sarasota, FL) via Ag/AgCl electrodes and 3 M KCl agar bridges for recording of the short-circuit current. For human airway epithelial cells, symmetrical HCO3^−-buffered solutions (in mM: 120 NaCl, 5 KCl, 1 MgCl2, 1 CaCl2, 5 Hepes, 25 NaHCO3, 10 glucose, pH 7.4) for basolateral and apical side were used. […]

A further test has as its target T3, W1282L-CFTR (Homo sapiens, UniProt P13569, W1282L).
T3 construct: introduced into full-length CFTR cDNA in the vector pcDNA3.1/Zeo (+); expressed in transfected cells
Put plainly: Short-circuit current in FRT cells expressing W1282L-CFTR. The test is classed as cell-based. Conditions: 20 µM forskolin, 5 µM VX-770, 20 µM ASP-11. How it is done: (§4) Figure 1 Co-potentiator ASP-11 activity in minimal function CFTR mutants in transfected FRT cells. (A) Structure of ASP-11. (B) Location of minimal function CFTR mutants studied herein. (C) Representative short-circuit current data in FRT cells expressing I1234del-CFTR, Q1313X-CFTR and S492F-CFTR in response to 20 µM forskolin (fsk), 5 µM VX-770, 20 µM ASP-11 and 10 μM CFTRinh-172. As indicated, cells were treated with 3 µM VX-809 for 18–24 h prior to measurements. (n = 3) (D). Representative short-circuit current data in FRT cells expressing predicted W1282X-CFTR read-through products W1282L-CFTR, W1282R-CFTR and W1282C-CFTR (without and with VX-809 pretreatment) (n = 3). MSD, membrane spanning domain; NBD, nucleotide binding domain; R, regulatory domain.
(§5) Compounds that promote read-through of PTCs to generate full-length CFTR have shown limited efficacy in cell culture studies[15]–[17]. Though the read-through drug ataluren (PTC124) was ineffective in clinical trials, newer compounds are in development. We investigated the ability of ASP-11 to activate chloride current in predicted W1282X-CFTR read-through products. […] FRT cell lines were generated that stably expressing W1282L-, W1282C- and W1282R-CFTR.
(§6) Short-circuit current was measured on cells cultured on Snapwell clear permeable supports (Corning) as described[10],[11]. […]

For a further test, the target named is T4, I1234del-CFTR (Homo sapiens, UniProt P13569, DEL1234-1239).
T4 construct: introduced into full-length CFTR cDNA in the vector pcDNA3.1/Zeo (+); expressed in transfected cells
Put plainly: Short-circuit current in FRT cells expressing I1234del-CFTR. The test is classed as cell-based. Conditions: I1234del-CFTR FRT cells; 20 µM forskolin, 5 µM VX-770, 20 µM ASP-11; range stated jointly for I1234del- and Q1313X-CFTR. The method, then: as §4, §1, §6

In another test the target is T5, W1282C-CFTR (Homo sapiens, UniProt P13569, W1282C).
T5 construct: introduced into full-length CFTR cDNA in the vector pcDNA3.1/Zeo (+); expressed in transfected cells
Put plainly: Short-circuit current in FRT cells expressing W1282C-CFTR. Conditions: 20 µM forskolin, 5 µM VX-770, 20 µM ASP-11. The test is classed as cell-based. The method, then: as §4, §5, §6

The next test addresses T6, R334W-CFTR (Homo sapiens, UniProt P13569, R334W).
T6 construct: expressed in transfected cells; host or cells: Fischer rat thyroid (FRT) cells; gift from Drs; Andras Rab and Jeong Hong (Emory University)
The test can be described thus: Short-circuit current in FRT cells expressing R334W-CFTR. It counts as cell-based. Conditions: 20 μM forskolin, 5 µM VX-770, 20 µM ASP-11. How it is done:
as §1, §2, §3

In another test the target is T7, L1077P-CFTR (Homo sapiens, UniProt P13569, L1077P).
T7 construct: expressed in transfected cells; host or cells: Fischer rat thyroid (FRT) cells; gift from Drs; Andras Rab and Jeong Hong (Emory University)
The test can be described thus: Short-circuit current in FRT cells expressing L1077P-CFTR. It counts as cell-based. Conditions: 20 μM forskolin, 5 µM VX-770, 20 µM ASP-11. How it is done: as §1, §2, §3

The target in another test is T8, S492F-CFTR (Homo sapiens, UniProt P13569, S492F).
T8 construct: expressed in transfected cells; host or cells: Fischer rat thyroid (FRT) cells; gift from Drs; Andras Rab and Jeong Hong (Emory University)
The test can be described thus: Short-circuit current in FRT cells expressing S492F-CFTR. The test is classed as cell-based. The following applies: 20 µM forskolin, 5 µM VX-770, 20 µM ASP-11, 3 µM VX-809 for 18–24 h. The method, then: as §4, §1
as §3, with “used. For FRT cells, the basolateral membrane was permeabilized with 250 μg/ml amphotericin B, and experiments were done with a chloride gradient using a HCO3^−-buffered solutions (Basolateral (mM): 120 NaCl, 5 KCl, 1 MgCl2, 1 CaCl2, 5 Hepes, 25 NaHCO3, 10 glucose, pH 7.4; apical (mM): 60 NaCl, 60 mM sodium gluconate, 5 KCl, 1 MgCl2, 1 CaCl2, 5 Hepes, 25 NaHCO3, 10 glucose, pH 7.4).” for “used.”

The target in a further test is T9, R560T-CFTR (Homo sapiens, UniProt P13569, R560T).
T9 construct: expressed in transfected cells; host or cells: Fischer rat thyroid (FRT) cells; gift from Drs; Andras Rab and Jeong Hong (Emory University)
Put plainly: Short-circuit current in FRT cells expressing R560T-CFTR. It counts as cell-based. Conditions: 20 μM forskolin, 5 µM VX-770, 20 µM ASP-11. The method, then: as §1, §2, §3

A further test has as its target T10, R1162X-CFTR (Homo sapiens, UniProt P13569).
T10 construct: expressed in transfected cells; host or cells: Fischer rat thyroid (FRT) cells; gift from Drs; Andras Rab and Jeong Hong (Emory University)
Put plainly: Short-circuit current in FRT cells expressing R1162X-CFTR. It counts as cell-based. The following applies: 5 µM VX-770, 20 µM ASP-11, 3 µM VX-809 overnight. How it is done: as §1, §2
Short-circuit current was measured on cells cultured on Snapwell clear permeable supports (Corning) as described[10],[11]. Hemichambers were connected to a DVC-1000 voltage clamp (World Precision Instruments Inc., Sarasota, FL) via Ag/AgCl electrodes and 3 M KCl agar bridges for recording of the short-circuit current. For human airway epithelial cells, symmetrical HCO3^−-buffered solutions (in mM: 120 NaCl, 5 KCl, 1 MgCl2, 1 CaCl2, 5 Hepes, 25 NaHCO3, 10 glucose, pH 7.4) for basolateral and apical side were used. For FRT cells, the basolateral membrane was permeabilized with 250 μg/ml amphotericin B, and experiments were done with a chloride gradient using a HCO3^−-buffered solutions (Basolateral (mM): 120 NaCl, 5 KCl, 1 MgCl2, 1 CaCl2, 5 Hepes, 25 NaHCO3, 10 glucose, pH 7.4; apical (mM): 60 NaCl, 60 mM sodium gluconate, 5 KCl, 1 MgCl2, 1 CaCl2, 5 Hepes, 25 NaHCO3, 10 glucose, pH 7.4). All cells were equilibrated with 95% O2, 5% CO2 and maintained at 37 °C during experiments.

For a further test, the target named is T11, N1303K-CFTR (Homo sapiens, UniProt P13569, N1303K).
T11 construct: expressed in transfected cells
Further details: method as in PMID 30046002. The following applies: prior studies; cited from earlier work.

T10 sequence (P13569 1-1161 limits assumed): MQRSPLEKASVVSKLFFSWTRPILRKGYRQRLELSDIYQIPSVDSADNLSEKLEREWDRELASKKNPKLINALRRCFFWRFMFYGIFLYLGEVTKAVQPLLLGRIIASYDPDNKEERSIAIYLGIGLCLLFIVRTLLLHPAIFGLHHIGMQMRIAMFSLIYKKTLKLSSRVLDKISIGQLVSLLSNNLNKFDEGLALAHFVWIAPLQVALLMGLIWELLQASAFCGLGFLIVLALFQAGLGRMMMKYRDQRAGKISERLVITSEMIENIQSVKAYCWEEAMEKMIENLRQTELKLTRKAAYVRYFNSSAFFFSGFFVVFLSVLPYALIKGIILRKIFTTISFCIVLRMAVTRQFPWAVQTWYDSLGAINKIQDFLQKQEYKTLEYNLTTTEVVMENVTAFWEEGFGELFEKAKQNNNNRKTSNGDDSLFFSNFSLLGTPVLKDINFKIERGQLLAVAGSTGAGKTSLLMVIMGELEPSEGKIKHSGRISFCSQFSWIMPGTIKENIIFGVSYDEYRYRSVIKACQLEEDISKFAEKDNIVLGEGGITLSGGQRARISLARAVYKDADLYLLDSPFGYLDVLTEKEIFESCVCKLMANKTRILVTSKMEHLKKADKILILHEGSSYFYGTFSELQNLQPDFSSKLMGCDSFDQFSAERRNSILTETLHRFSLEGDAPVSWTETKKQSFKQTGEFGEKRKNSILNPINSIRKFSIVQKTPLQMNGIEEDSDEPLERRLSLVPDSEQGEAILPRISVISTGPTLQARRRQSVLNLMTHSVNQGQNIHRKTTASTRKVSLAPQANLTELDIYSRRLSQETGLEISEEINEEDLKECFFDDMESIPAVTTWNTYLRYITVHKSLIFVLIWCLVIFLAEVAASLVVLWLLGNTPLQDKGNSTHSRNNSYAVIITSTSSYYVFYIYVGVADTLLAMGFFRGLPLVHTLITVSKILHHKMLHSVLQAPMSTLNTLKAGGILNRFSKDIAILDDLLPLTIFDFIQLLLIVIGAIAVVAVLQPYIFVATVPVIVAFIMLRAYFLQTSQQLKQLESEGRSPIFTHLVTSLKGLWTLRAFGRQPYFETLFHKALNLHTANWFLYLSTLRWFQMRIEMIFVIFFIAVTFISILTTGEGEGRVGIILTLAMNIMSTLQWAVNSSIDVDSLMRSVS
T5 sequence (P13569 whole entry W1282C): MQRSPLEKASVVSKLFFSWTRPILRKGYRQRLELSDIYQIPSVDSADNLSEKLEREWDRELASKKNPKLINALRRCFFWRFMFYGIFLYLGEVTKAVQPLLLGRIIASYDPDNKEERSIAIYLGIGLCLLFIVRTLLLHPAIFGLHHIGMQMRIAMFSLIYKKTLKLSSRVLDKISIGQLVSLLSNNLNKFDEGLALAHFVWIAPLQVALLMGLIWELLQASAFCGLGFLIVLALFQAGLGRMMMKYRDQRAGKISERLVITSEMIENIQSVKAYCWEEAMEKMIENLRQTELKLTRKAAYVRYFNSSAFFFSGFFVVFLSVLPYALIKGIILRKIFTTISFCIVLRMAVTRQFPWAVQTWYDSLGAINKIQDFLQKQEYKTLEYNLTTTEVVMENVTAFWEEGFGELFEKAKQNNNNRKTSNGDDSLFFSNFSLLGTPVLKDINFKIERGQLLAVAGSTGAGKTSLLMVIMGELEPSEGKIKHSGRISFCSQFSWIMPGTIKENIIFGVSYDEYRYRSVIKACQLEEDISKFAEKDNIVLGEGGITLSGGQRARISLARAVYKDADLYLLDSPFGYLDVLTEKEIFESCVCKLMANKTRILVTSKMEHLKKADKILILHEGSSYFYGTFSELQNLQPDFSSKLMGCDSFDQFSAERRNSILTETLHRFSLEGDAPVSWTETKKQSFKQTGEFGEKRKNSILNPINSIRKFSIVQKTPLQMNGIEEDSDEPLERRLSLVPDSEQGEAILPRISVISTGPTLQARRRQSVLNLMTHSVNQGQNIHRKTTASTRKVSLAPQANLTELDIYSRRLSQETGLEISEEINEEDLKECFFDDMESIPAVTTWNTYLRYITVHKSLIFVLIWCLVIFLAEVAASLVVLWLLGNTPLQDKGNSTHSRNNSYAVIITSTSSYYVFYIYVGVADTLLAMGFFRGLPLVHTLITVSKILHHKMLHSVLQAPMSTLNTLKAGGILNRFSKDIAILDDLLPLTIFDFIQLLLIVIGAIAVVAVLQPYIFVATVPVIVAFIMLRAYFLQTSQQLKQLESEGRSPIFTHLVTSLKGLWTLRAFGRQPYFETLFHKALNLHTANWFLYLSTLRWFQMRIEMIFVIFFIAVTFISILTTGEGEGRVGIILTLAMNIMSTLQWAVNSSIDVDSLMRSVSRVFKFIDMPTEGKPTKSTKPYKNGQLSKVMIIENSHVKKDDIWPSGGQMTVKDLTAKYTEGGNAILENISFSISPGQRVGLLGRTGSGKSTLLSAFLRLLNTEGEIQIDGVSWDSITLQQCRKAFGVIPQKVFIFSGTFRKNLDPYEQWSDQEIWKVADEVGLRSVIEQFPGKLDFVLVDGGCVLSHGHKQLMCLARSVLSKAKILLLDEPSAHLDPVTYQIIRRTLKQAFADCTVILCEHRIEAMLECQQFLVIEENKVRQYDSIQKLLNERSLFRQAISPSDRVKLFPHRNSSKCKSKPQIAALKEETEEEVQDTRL
T1 sequence (P13569 1-1281 limits assumed): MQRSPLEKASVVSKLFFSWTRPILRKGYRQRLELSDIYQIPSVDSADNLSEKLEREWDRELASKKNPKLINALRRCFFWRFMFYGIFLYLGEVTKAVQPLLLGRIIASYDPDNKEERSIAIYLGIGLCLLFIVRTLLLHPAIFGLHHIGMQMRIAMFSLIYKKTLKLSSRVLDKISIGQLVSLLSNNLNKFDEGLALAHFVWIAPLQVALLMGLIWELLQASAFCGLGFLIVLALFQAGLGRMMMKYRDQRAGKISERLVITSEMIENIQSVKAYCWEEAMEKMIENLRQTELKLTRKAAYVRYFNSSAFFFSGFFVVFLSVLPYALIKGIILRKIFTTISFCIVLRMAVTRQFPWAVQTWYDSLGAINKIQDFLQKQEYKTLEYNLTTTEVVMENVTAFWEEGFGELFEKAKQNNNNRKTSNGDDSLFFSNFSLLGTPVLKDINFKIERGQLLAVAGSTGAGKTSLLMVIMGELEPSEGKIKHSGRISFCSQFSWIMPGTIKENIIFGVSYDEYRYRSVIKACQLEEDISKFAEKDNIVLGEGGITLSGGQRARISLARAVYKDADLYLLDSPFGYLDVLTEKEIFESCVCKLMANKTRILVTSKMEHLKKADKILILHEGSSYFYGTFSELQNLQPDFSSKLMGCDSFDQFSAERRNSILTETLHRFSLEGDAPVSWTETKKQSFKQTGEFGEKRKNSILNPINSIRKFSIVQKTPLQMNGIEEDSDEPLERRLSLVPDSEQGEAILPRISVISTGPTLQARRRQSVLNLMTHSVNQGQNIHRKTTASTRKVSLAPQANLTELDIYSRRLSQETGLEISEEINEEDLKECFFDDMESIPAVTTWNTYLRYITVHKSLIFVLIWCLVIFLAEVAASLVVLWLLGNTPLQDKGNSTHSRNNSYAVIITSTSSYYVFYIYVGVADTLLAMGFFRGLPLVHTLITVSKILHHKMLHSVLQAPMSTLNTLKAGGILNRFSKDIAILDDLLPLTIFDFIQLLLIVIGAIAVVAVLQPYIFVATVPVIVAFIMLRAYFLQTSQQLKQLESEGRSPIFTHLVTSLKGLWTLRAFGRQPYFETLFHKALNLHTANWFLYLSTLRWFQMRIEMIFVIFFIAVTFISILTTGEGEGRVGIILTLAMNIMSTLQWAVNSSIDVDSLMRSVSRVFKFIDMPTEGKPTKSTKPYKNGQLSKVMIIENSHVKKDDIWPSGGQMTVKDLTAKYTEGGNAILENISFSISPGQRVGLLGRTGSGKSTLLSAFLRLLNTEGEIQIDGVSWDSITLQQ
T8 sequence (P13569 whole entry S492F): as the sequence (P13569 whole entry W1282C) above, with S492F, C1282W counted along it
T3 sequence (P13569 whole entry W1282L): as the sequence (P13569 whole entry W1282C) above, with C1282L counted along it
T7 sequence (P13569 whole entry L1077P): as the sequence (P13569 whole entry W1282C) above, with L1077P, C1282W counted along it
T9 sequence (P13569 whole entry R560T): as the sequence (P13569 whole entry W1282C) above, with R560T, C1282W counted along it
T6 sequence (P13569 whole entry R334W): as the sequence (P13569 whole entry W1282C) above, with R334W, C1282W counted along it
T11 sequence (P13569 whole entry N1303K): as the sequence (P13569 whole entry W1282C) above, with C1282W, N1303K counted along it
T2 sequence (P13569 whole entry M1101K): as the sequence (P13569 whole entry W1282C) above, with M1101K, C1282W counted along it

The term EC50 denotes the concentration at which the effect is half-maximal. High values mean a less potent agent, low ones a more potent agent. `COc1ccc2[nH]c3c(c2c1)CCNC31CCN(Cc2ccc(F)cc2F)CC1` [Compound A061]: on W1282X-CFTR (Table 1, 100% Vmax corresponds to 20 μM ASP-11), the “Relative Vmax (%)” value came to 100%. The same molecule displayed an EC50 at W1282X-CFTR (Table 1, piperidine-pyridoindole analogs) of 2000 nM.

On to `CCCCn1cc(S(=O)(=O)Nc2ccc(CC)cc2)c2cccnc21` [ASP-11], for which the “ASP-11 effect on short-circuit current” value at M1101K-CFTR, at R334W-CFTR, on L1077P-CFTR and on R560T-CFTR was “absence of ASP-11 effect” each time. Moreover, the “effect on short-circuit current after forskolin” value was “little additional” at W1282L-CFTR and “significant further effects” at W1282C-CFTR. Also, the “fold increase in chloride current with ASP-11 plus VX-770 compared to VX-770 alone” value at I1234del-CFTR is reported as 3–9 fold. For the same molecule, the entries for the “short-circuit current response to modulator” value at S492F-CFTR and at R1162X-CFTR were “no response” and “did not respond”, respectively.

Turning to `CC(C)(C)c1cc(C(C)(C)C)c(NC(=O)c2c[nH]c3ccccc3c2=O)cc1O` [VX-770, ivacaftor], the “effect on short-circuit current after forskolin” value at W1282L-CFTR was “little additional”; at W1282C-CFTR, “significant further effects”. The entries for the “short-circuit current response to modulator” value on S492F-CFTR and on R1162X-CFTR were “no response” and “did not respond”, respectively. Also, the “response of N1303K-CFTR to modulator” value on N1303K-CFTR is “not responsive”.
